The source of these data is patent US20140243302A1, “BRIDGED BICYCLIC COMPOUNDS FOR THE TREATMENT OF BACTERIAL INFECTIONS” (priority 2011, published 2014).

The test system of this test is Staphylococcus aureus Smith. Kind of test: MIC assay, modified agar dilution (CLSI), S. aureus Smith. It is filed as cell-based. Particulars: agar dilution, 35° C., 16-20 hr, lowest concentration that completely inhibited growth; for MIC: Staphylococcus aureus, read-out: S_aureus_Smith_WT_MIC. The procedure, abridged: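 Agar dilution per CLSI on Mueller Hinton agar (plus 5% horse blood for S. pneumoniae and E. faecium), compound 128 to 0.001 μg/mL in two-fold steps. Spots of ~1×10^4 CFU incubated at 35 °C for 16-20 hr before MIC scoring.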
On the technique in general: In agar dilution the substance is mixed into plates at graded concentrations.

Converted amounts (≈) assume the structure as drawn.

As to `O=C1COc2ccc(CNC34CCC(C(O)Cn5c(=O)ccc6ncc(F)cc65)(CC3)OC4)nc2N1` (single isomer, unassigned) [Example 55b, 6-((1-(2-(7-fluoro-2-oxo-1,5-naphthyridin-1(2H)-yl)-1-hydroxyethyl)-2-oxabicyclo[2.2.2]octan-4-ylamino)methyl)-2H-pyrido[3,2-b][1,4]oxazin-3(4H)-one], the S_aureus_Smith_WT_MIC came to 0.250 µg/mL.
As for `COc1ccc2ncc(F)c(CCC34CCC(NCc5cnc6[nH]ccc6c5)(CC3)CO4)c2n1` [Example 81, N-((1H-Pyrrolo[2,3-b]pyridin-5-yl)methyl)-1-(2-(3-fluoro-6-methoxy-1,5-naphthyridin-4-yl)ethyl)-2-oxabicyclo[2.2.2]octan-4-amine], the MIC was determined as 0.5 µg/mL (≈ 1.08 µM).
Still for that read-out and setting: with `COc1ccc2ncc(F)c(CCC34CCC(NCc5cnc(N6CCCC6)nc5)(CC3)CO4)c2n1` [Example 78, 1-(2-(3-Fluoro-6-methoxy-1,5-naphthyridin-4-yl)ethyl)-N-((2-(pyrrolidin-1-yl)pyrimidin-5-yl)methyl)-2-oxabicyclo[2.2.2]octan-4-amine] the figure was 0.25 µg/mL (≈ 0.508 µM); with `COc1ccc2ncc(F)c(/C=C/C34CCC(NCc5ccc6c(n5)NC(=O)CO6)(CC3)CO4)c2n1` [Example 19, (E)-6-((1-(2-(3-Fluoro-6-methoxy-1,5-naphthyridin-4-yl)vinyl)-2-oxabicyclo[2.2.2]octan-4-ylamino)methyl)-2H-pyrido[3,2-b][1,4]oxazin-3(4H)-one], 0.008 µg/mL (≈ 0.0163 µM); with `COc1ccc2ncc(F)c(CC(F)C34CCC(NCc5ccc6c(n5)NC(=O)CO6)(CC3)CO4)c2n1` (stereo not shown) [Example 157a, 6-[({1-[1-Fluoro-2-(3-fluoro-6-methoxy-1,5-naphthyridin-4-yl)ethyl]-2-oxabicyclo[2.2.2]oct-4-yl}amino)methyl]-2H-pyrido[3,2-b][1,4]oxazin-3(4H)-one], 2 µg/mL (≈ 3.91 µM).
The same measure, in the same setting: with `CCOc1cc(C)c2ncc(F)c(CCC34CCC(NCc5ccc6c(n5)NC(=O)CO6)(CC3)CO4)c2n1` [Example 137, 6-[({1-[2-(6-Ethoxy-3-fluoro-8-methyl-1,5-naphthyridin-4-yl)ethyl]-2-oxabicyclo[2.2.2]oct-4-yl}amino)methyl]-2H-pyrido[3,2-b][1,4]oxazin-3(4H)-one] the figure was 0.063 µg/mL (≈ 0.121 µM); with `COc1ccc2ncc(F)c(CCC34CCC(NCc5nc6ccccc6[nH]c5=O)(CC3)CO4)c2n1` [Example 97, 3-(((1-(2-(3-Fluoro-6-methoxy-1,5-naphthyridin-4-yl)ethyl)-2-oxabicyclo[2.2.2]octan-4-yl)amino)methyl)quinoxalin-2(1H)-one], 1 µg/mL (≈ 2.04 µM).
On to `COc1ccc2ncc(F)c(CCC34CCC(NCc5nn(C)cc5Cl)(CC3)CO4)c2n1` [Example 93, N-((4-Chloro-1-methyl-1H-pyrazol-3-yl)methyl)-1-(2-(3-fluoro-6-methoxy-1,5-naphthyridin-4-yl)ethyl)-2-oxabicyclo[2.2.2]octan-4-amine], for which the MIC was found to be 16 µg/mL (≈ 34.8 µM).
The same measure, in the same setting: with `COc1ccc2ncc(F)c(CCC34CCC(NCc5ccc6c(c5)OC(F)(F)O6)(CC3)CO4)c2n1` [Example 90, N-((2,2-Difluorobenzo[d][1,3]dioxol-5-yl)methyl)-1-(2-(3-fluoro-6-methoxy-1,5-naphthyridin-4-yl)ethyl)-2-oxabicyclo[2.2.2]octan-4-amine] the figure was 0.125 µg/mL (≈ 0.249 µM).
Same read-out and setting: as for `COc1ccc2ncc(F)c(CCC34CCC(NCc5ccc(C)c(F)c5)(CC3)CO4)c2n1` [Example 59, N-(3-Fluoro-4-methylbenzyl)-1-(2-(3-fluoro-6-methoxy-1,5-naphthyridin-4-yl)ethyl)-2-oxabicyclo[2.2.2]octan-4-amine], the figure is 0.016 µg/mL (≈ 0.0353 µM).
`COc1ccc2ncc(Cl)c(C(O)CC34CCC(NCc5ccc6c(n5)NC(=O)CO6)(CC3)CC4)c2n1` (single isomer, unassigned) [Example 13b, 6-((4-(2-(3-Chloro-6-methoxy-1,5-naphthyridin-4-yl)-2-hydroxyethyl)bicyclo[2.2.2]octan-1-ylamino)methyl)-2H-pyrido[3,2-b][1,4]oxazin-3(4H)-one] came in with a S_aureus_Smith_WT_MIC of 0.0630 µg/mL.
As to `COc1ccc2ncc(F)c(CCC34CCC(NC(=O)c5nc6c(cc5Cl)SCC(=O)N6)(CC3)CC4)c2n1` [Example 196, 7-Chloro-N-(4-(2-(3-fluoro-6-methoxy-1,5-naphthyridin-4-yl)ethyl)bicyclo[2.2.2]octan-1-yl)-3-oxo-3,4-dihydro-2H-pyrido[3,2-b][1,4]thiazine-6-carboxamide], the MIC is 0.25 µg/mL (≈ 0.45 µM).
The same measure, in the same setting: with `COc1ccc2ncc(F)c(CCC34CCC(NCc5nc6c(cc5F)OCC(=O)N6)(CC3)CO4)c2n1` [Example 98, 7-Fluoro-6-(((1-(2-(3-fluoro-6-methoxy-1,5-naphthyridin-4-yl)ethyl)-2-oxabicyclo[2.2.2]octan-4-yl)amino)methyl)-2H-pyrido[3,2-b][1,4]oxazin-3(4H)-one] the figure was 0.016 µg/mL (≈ 0.0313 µM).
Consider `CC(C)(O)CCOc1ccc2ncc(F)c(CCC34CCC(NCc5ccc6c(n5)NC(=O)CO6)(CC3)CO4)c2n1` [Example 175, 6-{[(1-{2-[3-Fluoro-6-(3-hydroxy-3-methylbutoxy)-1,5-naphthyridin-4-yl]ethyl}-2-oxabicyclo[2.2.2]oct-4-yl)amino]methyl}-2H-pyrido[3,2-b][1,4]oxazin-3(4H)-one], for which the MIC came to 1 µg/mL (≈ 1.77 µM).
Same read-out and setting: with `O=C1COc2ccc(CNC34CCC(CCc5c(F)cnc6ccc(OCC7(CO)CC7)nc56)(CC3)OC4)nc2N1` [Example 42, 6-((1-(2-(3-Fluoro-6-((1-(hydroxymethyl)cyclopropyl)methoxy)-1,5-naphthyridin-4-yl)ethyl)-2-oxabicyclo[2.2.2]octan-4-ylamino)methyl)-2H-pyrido[3,2-b][1,4]oxazin-3(4H)-one] the figure was 0.063 µg/mL (≈ 0.112 µM).
Take `O=C1COc2ccc(CNC34CCC(CCc5c(F)cnc6ccc(OCCCCO)nc56)(CC3)OC4)nc2N1` [Example 36, 6-((1-(2-(3-Fluoro-6-(4-hydroxybutoxy)-1,5-naphthyridin-4-yl)ethyl)-2-oxabicyclo[2.2.2]octan-4-ylamino)methyl)-2H-pyrido[3,2-b][1,4]oxazin-3(4H)-one]: the MIC came to 0.031 µg/mL (≈ 0.0562 µM).
Compound `COc1ccc2ncc(F)c(C(O)C(O)C34CCC(NCc5ccc6c(n5)NC(=O)CO6)(CC3)CO4)c2n1.Cl` (single isomer, unassigned) [Example 26a, 6-((1-(2-(3-Fluoro-6-methoxy-1,5-naphthyridin-4-yl)-1,2-dihydroxyethyl)-2-oxabicyclo[2.2.2]octan-4-ylamino)methyl)-2H-pyrido[3,2-b][1,4]oxazin-3(4H)-one Hydrochloride] registered a S_aureus_Smith_WT_MIC (Hydrochloride) of 0.250 µg/mL.
As to `COc1ccc2ncc(F)c(CCC34CCC(NCc5cccc(C#N)n5)(CC3)CO4)c2n1` [Example 60, 6-(((1-(2-(3-Fluoro-6-methoxy-1,5-naphthyridin-4-yl)ethyl)-2-oxabicyclo[2.2.2]octan-4-yl)amino)methyl)picolinonitrile], the MIC is 8 µg/mL (≈ 17.9 µM).
On the same count and under the same terms, with `COc1ccc2ncc(F)c(CCC34CCC(N(C)Cc5ccc6c(n5)NC(=O)CO6)(CC3)CO4)c2n1` [Example 176, 6-{[{1-[2-(3-Fluoro-6-methoxy-1,5-naphthyridin-4-yl)ethyl]-2-oxabicyclo[2.2.2]oct-4-yl}(methyl)amino]methyl}-2H-pyrido[3,2-b][1,4]oxazin-3(4H)-one] the figure was 0.125 µg/mL (≈ 0.246 µM).
